In US9561228B2 (Celgene Avilomics Research, Inc., priority 2013, dated 2017):

Key:
Type in all cases: cell-based
[1] = system: HT-29 cells (colorectal adenocarcinoma); experiment: Inhibition of cancer cell proliferation, HT-29 (CellTiterGlo, 72 hours); conditions: Homo sapiens
Summary of the method: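 Proliferation over 72 h at 37° C was read by CellTiterGlo luminescence, translated to cell counts with a cell-density standard curve (390–50,000 cells). Compound added as 3-fold dilutions from a 5,000 nM two-fold stock to 3000 seeded HT-29 cells; GI50 from percent inhibition relative to untreated wells.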

[2] = system: HCT116 cells (colorectal carcinoma); experiment: Inhibition of cancer cell proliferation, HCT116 (CellTiterGlo, 72 hours); conditions: Homo sapiens, HCT-116
Summary of the method: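 3000 cells per well exposed to 3-fold serial compound dilutions from 5,000 nM (two-fold solution, stock level) for 72 hours at 37° C. CellTiterGlo luminescence converted to cell number via a standard curve; percent inhibition vs untreated wells, GI50 by curve fit.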

[3] = system: ERK1/2 phosphorylation of p90RSK in A375 cells; experiment: Detection of total and phosphor-RSK by MSD ELISA (A375); conditions: Homo sapiens, A-375, read-out: ERK1/ERK2 PRSK A375 EC50
Summary of the method: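 Electrochemiluminescent MSD ELISA: common RSK capture antibody, with pRSK Ser380 or total RSK detection antibodies plus SulfoTag secondaries. Samples were lysates of A375 cells exposed to compound for 2 h at 37° C after overnight culture in 0.1% FBS DMEM.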

GI50 [1] [nM] | GI50 [2] [nM] | EC50 [3] [nM] | SMILES
< 100 | < 100 | < 100 | C=CC(=O)Nc1cc(C)ccc1Nc1nc(Nc2cc(NC3CC3)nc(OC)c2)ncc1C(F)(F)F [Compound I-337, N-(2-((2-((2-(cyclopropylamino)-6-methoxypyridin-4-yl)amino)-5-(trifluoromethyl)pyrimidin-4-yl)amino)-5-methylphenyl)acrylamide]
101 to 500 | 501 to 999 | < 100 | C=CC(=O)Nc1cc(C(F)(F)F)ccc1Nc1nc(Nc2cc(OC)ncc2C)ncc1C(F)(F)F [Compound I-323, N-(2-((2-((2-methoxy-5-methylpyridin-4-yl)amino)-5-(trifluoromethyl)pyrimidin-4-yl)amino)-5-(trifluoromethyl)phenyl)acrylamide]
 | < 100 | < 100 | C=CC(=O)Nc1cc(C)ccc1Nc1nc(Nc2cc(N[C@H]3CC[C@@H](O)CC3)nc(OC)c2)ncc1C(F)(F)F [Compound I-326, N-(2-((2-((2-((cis-4-hydroxycyclohexyl)amino)-6-methoxypyridin-4-yl)amino)-5-(trifluoromethyl)pyrimidin-4-yl)amino)-5-methylphenyl)acrylamide]
> 1000 | > 1000 | 101 to 500 | C=CS(=O)(=O)Nc1cc(C)ccc1Nc1nc(Nc2cc(OC)ncc2C)ncc1C(F)(F)F [Compound I-333, N-(2-((2-((2-methoxy-5-methylpyridin-4-yl)amino)-5-(trifluoromethyl)pyrimidin-4-yl)amino)-5-methylphenyl)ethenesulfonamide]
 |  | < 100 | C=CC(=O)Nc1ccccc1Nc1nc(Nc2ccnc(F)c2)ncc1C(F)(F)F [Compound I-287, N-(2-((2-((2-Fluoropyridin-4-yl)amino)-5-(trifluoromethyl)pyrimidin-4-yl)amino)phenyl)acrylamide]
< 100 | < 100 | < 100 | C=CC(=O)Nc1cc(C)ccc1Nc1nc(Nc2cc(OC)nc(N3CCN(C(C)=O)CC3)c2)ncc1Cl [Compound I-296, N-(2-((2-((2-(4-acetylpiperazin-1-yl)-6-methoxypyridin-4-yl)amino)-5-chloropyrimidin-4-yl)amino)-5-methylphenyl)acrylamide]
< 100 | 101 to 500 | 101 to 500 | C=CC(=O)Nc1cc(C)ccc1Nc1nc(Nc2cc(OC)nc(N(C)C3CC3)c2)ncc1C(F)(F)F [Compound I-342, N-(2-((2-((2-(cyclopropyl(methyl)amino)-6-methoxypyridin-4-yl)amino)-5-(trifluoromethyl)pyrimidin-4-yl)amino)-5-methylphenyl)acrylamide]
101 to 500 | 501 to 999 |  | C=CC(=O)Nc1ccccc1Nc1nc(N[C@@H]2CCN(C(C)=O)C2)ncc1C(F)(F)F [Compound I-60, (R)—N-(2-((2-((1-Acetylpyrrolidin-3-yl)amino)-5-(trifluoromethyl)pyrimidin-4-yl)amino)phenyl)acrylamide]
< 100 | < 100 | < 100 | C=CC(=O)Nc1cc(OC)ccc1Nc1nc(Nc2cc(OC)nc(N3CCN(C(C)=O)CC3)c2)ncc1C(F)(F)F [Compound I-91, N-(2-((2-((2-(4-Acetylpiperazin-1-yl)-6-methoxypyridin-4-yl)amino)-5-(trifluoromethyl)pyrimidin-4-yl)amino)-5-methoxyphenyl)acrylamide]
101 to 500 | 101 to 500 | < 100 | C=CC(=O)Nc1cc(F)ccc1Nc1nc(Nc2cc(OC)ncc2C)ncc1C(F)(F)F [Compound I-322, N-(5-fluoro-2-((2-((2-methoxy-5-methylpyridin-4-yl)amino)-5-(trifluoromethyl)pyrimidin-4-yl)amino)phenyl)acrylamide]
101 to 500 | 101 to 500 |  | C=CC(=O)Nc1cc(OC)ccc1Nc1nc(Nc2cc(Cl)nc(OC)c2)ncc1Cl [Compound I-245, N-(2-((5-chloro-2-((2-chloro-6-methoxypyridin-4-yl)amino)pyrimidin-4-yl)amino)-5-methoxyphenyl)acrylamide]
101 to 500 | 501 to 999 | < 100 | C=CC(=O)Nc1ccccc1Nc1nc(Nc2cc(OC)ccc2C)ncc1C(F)(F)F [Compound I-340, N-(2-((2-((5-methoxy-2-methylphenyl)amino)-5-(trifluoromethyl)pyrimidin-4-yl)amino)phenyl)acrylamide]
< 100 | < 100 | 101 to 500 | C=CC(=O)Nc1ccccc1Nc1nc(Nc2cc(OC)nc(N3CCN(C)CC3)c2)ncc1C(F)(F)F [Compound I-324, N-(2-((2-((2-methoxy-6-(4-methylpiperazin-1-yl)pyridin-4-yl)amino)-5-(trifluoromethyl)pyrimidin-4-yl)amino)phenyl)acrylamide]
101 to 500 | 501 to 999 |  | C=CC(=O)Nc1ccccc1Nc1nc(N[C@H]2CCN(C(=O)OC)C2)ncc1C(F)(F)F [Compound I-59, (S)-methyl 3-((4-((2-Acrylamidophenyl)amino)-5-(trifluoromethyl)pyrimidin-2-yl)amino)pyrrolidine-1-carboxylate]
< 100 | 101 to 500 | 101 to 500 | C=CC(=O)Nc1cc(C)ccc1Nc1nc(Nc2cc(OC)nc(N(C)CCOC)c2)ncc1C(F)(F)F [Compound I-336, N-(2-((2-((2-methoxy-6-((2-methoxyethyl)(methyl)amino)pyridin-4-yl)amino)-5-(trifluoromethyl)pyrimidin-4-yl)amino)-5-methylphenyl)acrylamide]
101 to 500 | 501 to 999 | < 100 | C=CC(=O)Nc1cc(C)ccc1Nc1nc(Nc2cc(OC)ncc2C)ncc1C(F)(F)F [Compound I-90, N-(2-((2-((2-Methoxy-5-methylpyridin-4-yl)amino)-5-(trifluoromethyl)pyrimidin-4-yl)amino)-5-methylphenyl)acrylamide]
< 100 | < 100 | 101 to 500 | C=CC(=O)Nc1cc(C)ccc1Nc1nc(Nc2cc(OC)nc(N3CCN(C)CC3)c2)ncc1C(F)(F)F [Compound I-325, N-(2-((2-((2-methoxy-6-(4-methylpiperazin-1-yl)pyridin-4-yl)amino)-5-(trifluoromethyl)pyrimidin-4-yl)amino)-5-methylphenyl)acrylamide]
 |  | < 100 | C=CC(=O)Nc1cc(C)ccc1Nc1nc(Nc2cc(C)nc(OC)c2)ncc1C(F)(F)F [Compound I-295, N-(2-((2-((2-methoxy-6-methylpyridin-4-yl)amino)-5-(trifluoromethyl)pyrimidin-4-yl)amino)-5-methylphenyl)acrylamide]
101 to 500 | > 1000 |  | C=CC(=O)Nc1cc(C)ccc1Nc1nc(Nc2cc(C(N)=O)ccn2)ncc1Cl [Compound I-238, 2-((4-((2-acrylamido-4-methylphenyl)amino)-5-chloropyrimidin-2-yl)amino)isonicotinamide]
< 100 | 101 to 500 |  | C=CC(=O)Nc1ccccc1Nc1nc(Nc2cc(Cl)nc(OC)c2)ncc1Cl [Compound I-246, N-(2-((5-chloro-2-((2-chloro-6-methoxypyridin-4-yl)amino)pyrimidin-4-yl)amino)phenyl)acrylamide]
 |  | > 1000 | C=CC(=O)Nc1cc(C)ccc1Nc1nc(Nc2cc(OC)ccc2C)ncc1C(F)(F)F [Compound I-341, N-(2-((2-((5-methoxy-2-methylphenyl)amino)-5-(trifluoromethyl)pyrimidin-4-yl)amino)-5-methylphenyl)acrylamide]
 | < 100 | < 100 | C=CC(=O)Nc1ccccc1Nc1nc(Nc2cc(N[C@H]3CC[C@@H](O)CC3)nc(OC)c2)ncc1C(F)(F)F [Compound I-292]
< 100 | 101 to 500 |  | C=CC(=O)Nc1ccccc1Nc1nc(N[C@H]2CCCN(C(C)=O)C2)ncc1Cl [Compound I-115, (S)—N-(2-((2-((1-acetylpiperidin-3-yl)amino)-5-chloropyrimidin-4-yl)amino)phenyl)acrylamide]
101 to 500 | 101 to 500 |  | C=CC(=O)Nc1ccccc1Nc1nc(N[C@H]2CCN(S(C)(=O)=O)C2)ncc1C(F)(F)F [Compound I-58, (S)—N-(2-((2-((1-(Methylsulfonyl)pyrrolidin-3-yl)amino)-5-(trifluoromethyl)pyrimidin-4-yl)amino)phenyl)acrylamide]
101 to 500 | 101 to 500 |  | C=CC(=O)Nc1ccccc1Nc1nc(N[C@H]2CCN(C(C)=O)C2)ncc1C(F)(F)F [Compound I-56, (S)—N-(2-((2-((1-Acetylpyrrolidin-3-yl)amino)-5-(trifluoromethyl)pyrimidin-4-yl)amino)phenyl)acrylamide]
 |  | > 1000 | C=CC(=O)Nc1ccccc1Nc1nc(Nc2cc(F)ccc2C)ncc1C(F)(F)F [Compound I-285, N-(2-((2-((5-Fluoro-2-methylphenyl)amino)-5-(trifluoromethyl)pyrimidin-4-yl)amino)phenyl)acrylamide]
 |  | 101 to 500 | C=CC(=O)Nc1cc(C)ccc1Nc1nc(Nc2ccnc(F)c2)ncc1C(F)(F)F [Compound I-288, N-(2-((2-((2-Fluoropyridin-4-yl)amino)-5-(trifluoromethyl)pyrimidin-4-yl)amino)-5-methylphenyl)acrylamide]
101 to 500 | 101 to 500 |  | C=CC(=O)Nc1ccccc1Nc1nc(N[C@H]2CCN(C(=O)CO)C2)ncc1C(F)(F)F [Compound I-57, (S)—N-(2-((2-((1-(2-Hydroxyacetyl)pyrrolidin-3-yl)amino)-5-(trifluoromethyl)pyrimidin-4-yl)amino)phenyl)acrylamide]
